According to patent US6469149B1 (priority 1997, dated 2002):

Tests used:
[1] = target: T1, L-galactono-γ-lactone dehydrogenase (Brassica oleracea, UniProt O47881); experiment: GLDase activity in the presence of lycorine (reduction of cytochrome c, absorption at 550 nm); assay type: biochemical, cauliflower (Brassica olecera var. botrytis); set-up: Activity of the enzyme expressed in increase in absorption at 550 nm/second: scale not given here
T1 construct: The resulting mature protein of 509 amino acids has a calculated molecular mass of 57,837 Da; from tissue; host or cells: cauliflower florets (mitochondrial pellet, acetone-precipitated extract; DEAE, Phenyl Sepharose and Sephacryl gel filtration fractions)
T1 sequence (O47881 92-600): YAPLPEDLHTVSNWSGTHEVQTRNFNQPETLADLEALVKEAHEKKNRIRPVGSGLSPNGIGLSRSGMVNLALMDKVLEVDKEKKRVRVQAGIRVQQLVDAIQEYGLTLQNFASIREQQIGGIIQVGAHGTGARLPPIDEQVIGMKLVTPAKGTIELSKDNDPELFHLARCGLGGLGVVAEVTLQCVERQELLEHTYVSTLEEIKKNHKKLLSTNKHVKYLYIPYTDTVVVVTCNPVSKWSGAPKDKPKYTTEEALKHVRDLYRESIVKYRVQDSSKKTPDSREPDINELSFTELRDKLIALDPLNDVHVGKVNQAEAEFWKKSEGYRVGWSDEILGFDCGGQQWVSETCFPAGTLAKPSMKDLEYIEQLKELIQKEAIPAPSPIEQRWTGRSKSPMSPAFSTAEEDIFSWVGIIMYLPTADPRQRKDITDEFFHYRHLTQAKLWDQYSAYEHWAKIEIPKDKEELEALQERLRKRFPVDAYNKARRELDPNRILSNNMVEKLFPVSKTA
Procedure: The GLDase activity of the fractions was is determined spectrophotometrically by monitoring the L-galactono-γ-lactone dehydrogenase-dependent reduction of cytochrome c at 22° C. A typical reaction mixture contained the enzyme extract, 1.5 mg/ml cytochrome c and 4.2 mM L-galactono-γ-lactone in 0.05 M Tris-HCl buffer (pH 8.4). Reduction of cytochrome c was monitored by determining the absorption increase at 550 nm. Under these conditions the speed of the reaction was linear in respect of time for an initial period of 15 minutes. One unit of enzyme activity was defined as the quantity of enzyme reducing 2 μmol of cytochrome C per minute.
Lycorine was isolated from the plant Crinum asiaticum and the identity of the isolated product was verified by NMR, electron spray mass spectrometry HPLC analysis and capillary electrophoresis. Fractions of L-galactono-γ-lactone dehydrogenase activity isolated from the gel filtration column were tested for their activity in two different buffers in the presence of 5 or 50 μM lycorine (see table 3).

ascorbic acid synthesis = details: literature statement; cited from earlier work
[2] = target: T2, L-galactono-γ-lactone dehydrogenase (Arabidopsis thaliana, UniProt Q9SU56); details: literature (De Tullio et al. 1994; Arrigoni et al. 1996); cited from earlier work
T2 sequence (Q9SU56 102-610): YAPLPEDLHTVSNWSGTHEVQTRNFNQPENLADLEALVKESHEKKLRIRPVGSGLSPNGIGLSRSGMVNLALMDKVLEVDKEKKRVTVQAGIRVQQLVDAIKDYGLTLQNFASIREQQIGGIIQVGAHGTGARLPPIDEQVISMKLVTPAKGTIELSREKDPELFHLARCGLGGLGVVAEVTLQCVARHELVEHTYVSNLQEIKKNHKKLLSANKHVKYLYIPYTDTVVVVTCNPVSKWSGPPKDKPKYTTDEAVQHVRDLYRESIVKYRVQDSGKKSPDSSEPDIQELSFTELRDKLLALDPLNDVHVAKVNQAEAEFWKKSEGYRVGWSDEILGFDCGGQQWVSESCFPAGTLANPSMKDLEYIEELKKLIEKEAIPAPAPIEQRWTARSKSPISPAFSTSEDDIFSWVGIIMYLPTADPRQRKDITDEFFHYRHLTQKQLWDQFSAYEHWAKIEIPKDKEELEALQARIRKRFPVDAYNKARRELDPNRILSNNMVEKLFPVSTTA

O[C@H]1[C@H]2c3cc4c(cc3CN3CCC(=C[C@@H]1O)[C@H]23)OCO4 [lycorine]
Activity of the enzyme expressed in increase in absorption at 550 nm/second ([1]; 5 μM lycorine, 75 mM PO4 pH 7.0, 0 μM control 0.980): 0.857 absorption at 550 nm/second | Activity of the enzyme expressed in increase in absorption at 550 nm/second ([1]; 5 μM lycorine, 75 mM PO4 pH 7.5, 0 μM control 1.385): 1.372 absorption at 550 nm/second | Activity of the enzyme expressed in increase in absorption at 550 nm/second ([1]; 5 μM lycorine, 75 mM PO4 pH 8, 0 μM control 1.882): 1.690 absorption at 550 nm/second | Activity of the enzyme expressed in increase in absorption at 550 nm/second ([1]; 5 μM lycorine, 75 mM Tris pH 7.4, 0 μM control 3.627): 3.927 absorption at 550 nm/second | Activity of the enzyme expressed in increase in absorption at 550 nm/second ([1]; 5 μM lycorine, 75 mM Tris pH 8.2, 0 μM control 6.365): 6.400 absorption at 550 nm/second | Activity of the enzyme expressed in increase in absorption at 550 nm/second ([1]; 5 μM lycorine, 75 mM Tris pH 8.9, 0 μM control 5.438): 5.199 absorption at 550 nm/second | Activity of the enzyme expressed in increase in absorption at 550 nm/second ([1]; 50 μM lycorine, 75 mM PO4 pH 7.0, 0 μM control 0.980): 0.842 absorption at 550 nm/second | Activity of the enzyme expressed in increase in absorption at 550 nm/second ([1]; 50 μM lycorine, 75 mM PO4 pH 7.5, 0 μM control 1.385): 1.254 absorption at 550 nm/second | Activity of the enzyme expressed in increase in absorption at 550 nm/second ([1]; 50 μM lycorine, 75 mM PO4 pH 8, 0 μM control 1.882): 1.768 absorption at 550 nm/second | Activity of the enzyme expressed in increase in absorption at 550 nm/second ([1]; 50 μM lycorine, 75 mM Tris pH 7.4, 0 μM control 3.627): 3.743 absorption at 550 nm/second | Activity of the enzyme expressed in increase in absorption at 550 nm/second ([1]; 50 μM lycorine, 75 mM Tris pH 8.2, 0 μM control 6.365): 6.127 absorption at 550 nm/second | Activity of the enzyme expressed in increase in absorption at 550 nm/second ([1]; 50 μM lycorine, 75 mM Tris pH 8.9, 0 μM control 5.438): 5.507 absorption at 550 nm/second | Effect on GLDase activity ([1]; 100 μM lycorine, additional tests): did not show a decrease in activity | Effect on GLDase activity after pre-incubation ([1]; pre-incubation of one hour of the enzyme with lycorine): did not influence the enzyme activity | Sensitivity of the isolated GLDase to lycorine ([1]; up to a concentration of 50 μM): lycorine-insensitive | Concentration at which ascorbic acid synthesis is inhibited (ascorbic acid synthesis): ≥ 1 µM | Inhibition of L-galactono-γ-lactone dehydrogenase [2]: inhibited
